This passage reports IC50 results from patent US20230093099A1, “COMPOUNDS AND METHODS OF TREATING CANCERS” (CULLGEN (SHANGHAI), INC., priority 2019, published 2023).

A word on the IC50: it is the concentration that inhibits the measured activity by half.

Each structure is given as a SMILES string. A value given as a limit tells only on which side of the number the result lay.

The subject of the test is RS4;11 cells. Kind of test: Cell viability assay (CellTiter-Glo) in RS4;11 cells. Type of test: cell-based. Conditions: Homo sapiens, 72 h; RS4;11 cells; cell viability, 3 days, CellTiter-Glo; read-out: IC50. An outline of the steps:
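Three-day compound treatment of RS4;11 ALL cells (5000/well, 3-fold dilution series of 8 or 12 points), with IC50 from a nonlinear least-squares fit to CellTiter-Glo viability data.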
For orientation: ATP-based viability assays read luminescence as a measure of living cells.
`O=C1CCC(N2Cc3cc(C#CCCCCC(=O)N4CCC(n5cc(-c6cnc7cccc(-c8cc(F)c(CN9CCOCC9)c(F)c8)c7n6)cn5)CC4)ccc3C2=O)C(=O)N1` (centres unmarked) [JA-271, 3-(5-(7-(4-(4-(8-(3,5-Difluoro-4-(morpholinomethyl)phenyl)quinoxalin-2-yl)-1H-pyrazol-1-yl)piperidin-1-yl)-7-oxohept-1-yn-1-yl)-1-oxoisoindolin-2-yl)piperidine-2,6-dione]: the IC50 was determined as 157 nM. Regarding `O=C1CCC(N2Cc3ccc(NCCCCCC(=O)N4CCC(n5cc(-c6cnc7cccc(-c8cc(F)c(CN9CCOCC9)c(F)c8)c7n6)cn5)CC4)cc3C2=O)C(=O)N1` (centres unmarked) [JA-272, 3-(6-((6-(4-(4-(8-(3,5-Difluoro-4-(morpholinomethyl)phenyl)quinoxalin-2-yl)-1H-pyrazol-1-yl)piperidin-1-yl)-6-oxohexyl)amino)-1-oxoisoindolin-2-yl)piperidine-2,6-dione], the half-inhibitory concentration (IC50) stood at 520 nM. `O=C1CCC(N2Cc3cc(NCCCCCC(=O)N4CCC(n5cc(-c6cnc7cccc(-c8cc(F)c(CN9CCOCC9)c(F)c8)c7n6)cn5)CC4)ccc3C2=O)C(=O)N1` (centres unmarked) [JA-273, 3-(5-((6-(4-(4-(8-(3,5-difluoro-4-(morpholinomethyl)phenyl)quinoxalin-2-yl)-1H-pyrazol-1-yl)piperidin-1-yl)-6-oxohexyl)amino)-1-oxoisoindolin-2-yl)piperidine-2,6-dione]: the IC50 worked out at 66 nM. The value for `O=C1CCC(N2Cc3ccc(OCCCCCC(=O)N4CCC(n5cc(-c6cnc7cccc(-c8cc(F)c(CN9CCOCC9)c(F)c8)c7n6)cn5)CC4)cc3C2=O)C(=O)N1` (centres unmarked) [JA-274, 3-(6-((6-(4-(4-(8-(3,5-Difluoro-4-(morpholinomethyl)phenyl)quinoxalin-2-yl)-1H-pyrazol-1-yl)piperidin-1-yl)-6-oxohexyl)oxy)-1-oxoisoindolin-2-yl)piperidine-2,6-dione] was 1670 nM; that for `CS(=O)(=O)c1ccc(-c2cccc3nc(Nc4ccc(N5CCN(C(=O)CCCCCNc6ccc7c(c6)CN(C6CCC(=O)NC6=O)C7=O)CC5)cc4)nn23)cc1` (centres unmarked) [JA-275, 3-(5-((6-(4-(4-((5-(4-(Methylsulfonyl)phenyl)-[1,2,4]triazolo[1,5-a]pyridin-2-yl)amino)phenyl)piperazin-1-yl)-6-oxohexyl)amino)-1-oxoisoindolin-2-yl)piperidine-2,6-dione] was 176 nM. In the case of `CS(=O)(=O)c1ccc(-c2cccc3nc(Nc4ccc(N5CCN(C(=O)CCCCCNc6ccc7c(c6)C(=O)N(C6CCC(=O)NC6=O)C7)CC5)cc4)nn23)cc1` (centres unmarked) [JA-276, 3-(6-((6-(4-(4-((5-(4-(Methylsulfonyl)phenyl)-[1,2,4]triazolo[1,5-a]pyridin-2-yl)amino)phenyl)piperazin-1-yl)-6-oxohexyl)amino)-1-oxoisoindolin-2-yl)piperidine-2,6-dione], the half-inhibitory concentration (IC50) is more than 10000 nM.

For `CS(=O)(=O)c1ccc(-c2cccc3nc(Nc4ccc(N5CCN(C(=O)CCCCCOc6ccc7c(c6)C(=O)N(C6CCC(=O)NC6=O)C7)CC5)cc4)nn23)cc1` (centres unmarked) [JA-277, 3-(6-((6-(4-(4-((5-(4-(Methylsulfonyl)phenyl)-[1,2,4]triazolo[1,5-a]pyridin-2-yl)amino)phenyl)piperazin-1-yl)-6-oxohexyl)oxy)-1-oxoisoindolin-2-yl)piperidine-2,6-dione], the IC50 was determined as 447 nM.

Take `O=C1CCC(n2c(=O)n(CCCCCC(=O)N3CCC(n4cc(-c5cnc6cccc(-c7cc(F)c(CN8CCOCC8)c(F)c7)c6n5)cn4)CC3)c3ccccc32)C(=O)N1` (centres unmarked) [JA-278, 3-(3-(6-(4-(4-(8-(3,5-Difluoro-4-(morpholinomethyl)phenyl)quinoxalin-2-yl)-1H-pyrazol-1-yl)piperidin-1-yl)-6-oxohexyl)-2-oxo-2,3-dihydro-1H-benzo[d]imidazol-1-yl)piperidine-2,6-dione]: the IC50 is more than 500 nM.

On to `O=C1CCC(n2c(=O)n(CCCCCCC(=O)N3CCC(n4cc(-c5cnc6cccc(-c7cc(F)c(CN8CCOCC8)c(F)c7)c6n5)cn4)CC3)c3ccccc32)C(=O)N1` (centres unmarked) [JA-279, 3-(3-(7-(4-(4-(8-(3,5-Difluoro-4-(morpholinomethyl)phenyl)quinoxalin-2-yl)-1H-pyrazol-1-yl)piperidin-1-yl)-7-oxoheptyl)-2-oxo-2,3-dihydro-1H-benzo[d]imidazol-1-yl)piperidine-2,6-dione], for which the IC50 is more than 500 nM. In the case of `CS(=O)(=O)c1ccc(-c2cccc3nc(Nc4ccc(N5CCN(C(=O)CCCCCn6c(=O)n(C7CCC(=O)NC7=O)c7ccccc76)CC5)cc4)nn23)cc1` (centres unmarked) [JA-280, 3-(3-(6-(4-(4-((5-(4-(Methylsulfonyl)phenyl)-[1,2,4]triazolo[1,5-a]pyridin-2-yl)amino)phenyl)piperazin-1-yl)-6-oxohexyl)-2-oxo-2,3-dihydro-1H-benzo[d]imidazol-1-yl)piperidine-2,6-dione], the 50% inhibitory concentration (IC50) was more than 500 nM. `CS(=O)(=O)c1ccc(-c2cccc3nc(Nc4ccc(N5CCN(C(=O)CCCCCCn6c(=O)n(C7CCC(=O)NC7=O)c7ccccc76)CC5)cc4)nn23)cc1` (centres unmarked) [JA-281, 3-(3-(7-(4-(4-((5-(4-(Methylsulfonyl)phenyl)-[1,2,4]triazolo[1,5-a]pyridin-2-yl)amino)phenyl)piperazin-1-yl)-7-oxoheptyl)-2-oxo-2,3-dihydro-1H-benzo[d]imidazol-1-yl)piperidine-2,6-dione]: the IC50 is more than 500 nM. Take `Cn1c(=O)n(C2CCC(=O)NC2=O)c2cccc(NCCCCCC(=O)N3CCC(n4cc(-c5cnc6cccc(-c7cc(F)c(CN8CCOCC8)c(F)c7)c6n5)cn4)CC3)c21` (centres unmarked) [JA-282, 3-(4-((6-(4-(4-(8-(3,5-Difluoro-4-(morpholinomethyl)phenyl)quinoxalin-2-yl)-1H-pyrazol-1-yl)piperidin-1-yl)-6-oxohexyl)amino)-3-methyl-2-oxo-2,3-dihydro-1H-benzo[d]imidazol-1-yl)piperidine-2,6-dione]: the IC50 was more than 500 nM. As to `Cn1c(=O)n(C2CCC(=O)NC2=O)c2cccc(NCCCCCCC(=O)N3CCC(n4cc(-c5cnc6cccc(-c7cc(F)c(CN8CCOCC8)c(F)c7)c6n5)cn4)CC3)c21` (centres unmarked) [JA-283, 3-(4-((7-(4-(4-(8-(3,5-Difluoro-4-(morpholinomethyl)phenyl)quinoxalin-2-yl)-1H-pyrazol-1-yl)piperidin-1-yl)-7-oxoheptyl)amino)-3-methyl-2-oxo-2,3-dihydro-1H-benzo[d]imidazol-1-yl)piperidine-2,6-dione], the IC50 was more than 500 nM.

`Cn1c(=O)n(C2CCC(=O)NC2=O)c2cccc(NCCCCCC(=O)N3CCN(c4ccc(Nc5nc6cccc(-c7ccc(S(C)(=O)=O)cc7)n6n5)cc4)CC3)c21` (centres unmarked) [JA-284, 3-(3-Methyl-4-((6-(4-(4-((5-(4-(methylsulfonyl)phenyl)-[1,2,4]triazolo[1,5-a]pyridin-2-yl)amino)phenyl)piperazin-1-yl)-6-oxohexyl)amino)-2-oxo-2,3-dihydro-1H-benzo[d]imidazol-1-yl)piperidine-2,6-dione]: the IC50 was more than 500 nM. As for `Cn1c(=O)n(C2CCC(=O)NC2=O)c2cccc(NCCCCCCC(=O)N3CCN(c4ccc(Nc5nc6cccc(-c7ccc(S(C)(=O)=O)cc7)n6n5)cc4)CC3)c21` (centres unmarked) [JA-285, 3-(3-Methyl-4-((7-(4-(4-((5-(4-(methylsulfonyl)phenyl)-[1,2,4]triazolo[1,5-a]pyridin-2-yl)amino)phenyl)piperazin-1-yl)-7-oxoheptyl)amino)-2-oxo-2,3-dihydro-1H-benzo[d]imidazol-1-yl)piperidine-2,6-dione], the IC50 was more than 500 nM. For the compound `Cn1c(=O)n(C2CCC(=O)NC2=O)c2cccc(NCCCCC(=O)N3CCC(n4cc(-c5cnc6cccc(-c7cc(F)c(CN8CCOCC8)c(F)c7)c6n5)cn4)CC3)c21` (centres unmarked) [JA-286, 3-(4-((5-(4-(4-(8-(3,5-Difluoro-4-(morpholinomethyl)phenyl)quinoxalin-2-yl)-1H-pyrazol-1-yl)piperidin-1-yl)-5-oxopentyl)amino)-3-methyl-2-oxo-2,3-dihydro-1H-benzo[d]imidazol-1-yl)piperidine-2,6-dione], the half-maximal inhibitory concentration (IC50) is more than 500 nM. The value for `Cn1c(=O)n(C2CCC(=O)NC2=O)c2ccc(NCCCCC(=O)N3CCC(n4cc(-c5cnc6cccc(-c7cc(F)c(CN8CCOCC8)c(F)c7)c6n5)cn4)CC3)cc21` (centres unmarked) [JA-287, 3-(5-((5-(4-(4-(8-(3,5-Difluoro-4-(morpholinomethyl)phenyl)quinoxalin-2-yl)-1H-pyrazol-1-yl)piperidin-1-yl)-5-oxopentyl)amino)-3-methyl-2-oxo-2,3-dihydro-1H-benzo[d]imidazol-1-yl)piperidine-2,6-dione] was more than 500 nM; that for `Cn1c(=O)n(C2CCC(=O)NC2=O)c2ccc(NCCCCCC(=O)N3CCC(n4cc(-c5cnc6cccc(-c7cc(F)c(CN8CCOCC8)c(F)c7)c6n5)cn4)CC3)cc21` (centres unmarked) [JA-288, 3-(5-((6-(4-(4-(8-(3,5-Difluoro-4-(morpholinomethyl)phenyl)quinoxalin-2-yl)-1H-pyrazol-1-yl)piperidin-1-yl)-6-oxohexyl)amino)-3-methyl-2-oxo-2,3-dihydro-1H-benzo[d]imidazol-1-yl)piperidine-2,6-dione] was more than 500 nM; that for `Cn1c(=O)n(C2CCC(=O)NC2=O)c2ccc(NCCCCCCC(=O)N3CCC(n4cc(-c5cnc6cccc(-c7cc(F)c(CN8CCOCC8)c(F)c7)c6n5)cn4)CC3)cc21` (centres unmarked) [JA-289, 3-(5-((7-(4-(4-(8-(3,5-Difluoro-4-(morpholinomethyl)phenyl)quinoxalin-2-yl)-1H-pyrazol-1-yl)piperidin-1-yl)-7-oxoheptyl)amino)-3-methyl-2-oxo-2,3-dihydro-1H-benzo[d]imidazol-1-yl)piperidine-2,6-dione] was more than 500 nM. In the case of `Cn1c(=O)n(C2CCC(=O)NC2=O)c2cccc(NCCCCC(=O)N3CCN(c4ccc(Nc5nc6cccc(-c7ccc(S(C)(=O)=O)cc7)n6n5)cc4)CC3)c21` (centres unmarked) [JA-290, 3-(3-Methyl-4-((5-(4-(4-((5-(4-(methylsulfonyl)phenyl)-[1,2,4]triazolo[1,5-a]pyridin-2-yl)amino)phenyl)piperazin-1-yl)-5-oxopentyl)amino)-2-oxo-2,3-dihydro-1H-benzo[d]imidazol-1-yl)piperidine-2,6-dione], the IC50 was more than 500 nM.
